Measurements from patent US8722849B2, “Polypeptides” (Novo Nordisk A/S, priority 2011, dated 2014).
Converted amounts (≈) assume the structure as drawn. Like-named read-outs stand apart in the source and are kept apart here. Starred links: 1 amine or outer side, 2 acyl side, 3 side chain; linkers in the order of their positions; H or OH if unused. Positions of bridges follow the written chain, without caps; N, C: chain ends. Residues, ends and D or L forms follow the SMILES beside them. *: point of attachment. C20 diacid = O=C(O)CCCCCCCCCCCCCCCCCCC(=O)*; γGlu = O=C(O)[C@H](CCC(=O)[*:2])N[*:1]

Experiments:
[1] = target: T1, human amylin receptor (amylin 3(a) receptor: human calcitonin receptor + RAMP-3) (Homo sapiens, UniProt O60896+P30988); test: Assay (II)a functional CRE-luciferase assay, human amylin receptor; type: cell-based; conditions: Table 2; BHK amylin 3(a)-receptor/CRE-luc cells
T1 construct: expressed in transfected cells; host or cells: BHK570
T1 sequence (P30988 25-474): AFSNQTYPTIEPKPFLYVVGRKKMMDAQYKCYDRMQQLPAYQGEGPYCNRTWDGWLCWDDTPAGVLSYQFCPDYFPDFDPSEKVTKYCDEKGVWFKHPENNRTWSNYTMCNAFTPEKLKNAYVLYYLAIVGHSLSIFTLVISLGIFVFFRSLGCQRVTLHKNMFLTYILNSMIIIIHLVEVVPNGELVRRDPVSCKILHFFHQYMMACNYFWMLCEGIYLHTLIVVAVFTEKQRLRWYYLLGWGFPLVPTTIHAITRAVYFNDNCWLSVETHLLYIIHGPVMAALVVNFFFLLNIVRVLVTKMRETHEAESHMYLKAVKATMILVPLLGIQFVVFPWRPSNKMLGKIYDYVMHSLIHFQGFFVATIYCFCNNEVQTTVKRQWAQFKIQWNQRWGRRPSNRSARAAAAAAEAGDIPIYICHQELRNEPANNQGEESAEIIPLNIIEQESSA
T1 sequence (O60896 24-148 partner): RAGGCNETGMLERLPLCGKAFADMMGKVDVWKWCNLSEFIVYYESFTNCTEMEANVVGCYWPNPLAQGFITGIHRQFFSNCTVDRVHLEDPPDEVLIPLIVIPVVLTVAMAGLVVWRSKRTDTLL

[2] = target: T2, human calcitonin receptor (Homo sapiens, UniProt P30988); test: Assay (II)a functional CRE-luciferase assay, human calcitonin receptor; type: cell-based; conditions: Table 7; human calcitonin (CTa) receptor
T2 construct: expressed in transfected cells; host or cells: BHK570
T2 sequence (P30988 25-474): T1 sequence (P30988 25-474)

[3] = target: T3, rat amylin 3(a) receptor (rat calcitonin(a) receptor + rat RAMP3) (Rattus norvegicus, UniProt P32214+Q9JJ73); test: Assay (II)b functional cAMP FlashPlate assay, rat amylin receptor; type: cell-based; conditions: Table 11
T3 construct: expressed in transfected cells; host or cells: BHK tk'ts 13
T3 sequence (P32214 25-479 isoform P32214-2 limits assumed): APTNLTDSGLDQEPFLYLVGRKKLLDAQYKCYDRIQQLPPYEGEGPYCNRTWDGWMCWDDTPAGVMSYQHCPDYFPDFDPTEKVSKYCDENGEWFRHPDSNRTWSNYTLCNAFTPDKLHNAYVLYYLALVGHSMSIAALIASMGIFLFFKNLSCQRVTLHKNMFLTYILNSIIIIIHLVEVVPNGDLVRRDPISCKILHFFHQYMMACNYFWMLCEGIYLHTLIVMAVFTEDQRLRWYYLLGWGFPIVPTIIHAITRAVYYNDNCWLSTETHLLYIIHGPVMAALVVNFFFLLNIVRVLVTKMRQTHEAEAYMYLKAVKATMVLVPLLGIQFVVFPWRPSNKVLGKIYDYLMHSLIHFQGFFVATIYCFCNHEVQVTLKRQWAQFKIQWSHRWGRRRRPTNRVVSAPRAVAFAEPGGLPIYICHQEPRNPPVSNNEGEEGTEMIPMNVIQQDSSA
T3 sequence (Q9JJ73 23-147 partner): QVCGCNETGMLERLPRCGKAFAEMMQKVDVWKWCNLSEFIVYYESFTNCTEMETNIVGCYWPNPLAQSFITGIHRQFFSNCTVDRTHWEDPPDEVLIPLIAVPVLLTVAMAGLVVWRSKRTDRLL
Method in brief: (§1)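 BHK tk'ts 13 cells transiently transfected with rat calcitonin(a) receptor, alone or with rat RAMP3 (amylin 3(a)), were stimulated 24 hours later with sample for 30 min in buffer containing IBMX. cAMP measured by competitive radioactive FlashPlate assay, scintillation read after 3 h detection incubation.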

[4] = target: T4, rat calcitonin (a) receptor (Rattus norvegicus, UniProt P32214); test: Assay (II)b functional cAMP FlashPlate assay, rat calcitonin receptor; type: cell-based; conditions: Table 11; read-out: CTa receptor rat EC50
T4 construct: expressed in transfected cells; host or cells: BHK tk'ts 13
T4 sequence (P32214 25-479 isoform P32214-2 limits assumed): T3 sequence (P32214 25-479 isoform P32214-2 limits assumed)
Method in brief: as §1

[5] = Assay (IV) determination of solubility; type: physicochemical
Method in brief: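 Polypeptide in water (~500 nmol/ml) mixed 1:1 with 100 mM glycylglycine (pH 3.0–5.0) or bistrispropane (pH 6.0–8.0) buffers. Held 18 hours at room temperature, then centrifuged. Polypeptide remaining in solution quantified by HPLC.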

[6] = bistrispropane buffer, pH 6, pH 6.0, read-out: Solubility pH 6.0
[7] = bistrispropane buffer, pH 6.5, pH 6.5, read-out: Solubility pH 6.5
[8] = bistrispropane buffer, pH 7, pH 7.0, 18 hours at room temperature, Table 3, read-out: Solubility pH 7.0
[9] = bistrispropane buffer, pH 7, pH 7.0, read-out: Solubility pH 7.0
[10] = bistrispropane buffer, pH 7.5, pH 7.5, read-out: Solubility pH 7.5
[11] = bistrispropane buffer, pH 8, pH 8.0, read-out: Solubility pH 8.0
[12] = glycylglycine buffer, pH 3, pH 3.0, read-out: Solubility pH 3.0
[13] = glycylglycine buffer, pH 4, pH 4.0, 18 hours at room temperature, Table 2, read-out: Solubility pH 4.0
[14] = glycylglycine buffer, pH 4, pH 4.0, read-out: Solubility pH 4.0
[15] = glycylglycine buffer, pH 5, pH 5.0, read-out: Solubility pH 5.0

EC50 [1] [nM]	EC50 [2] [nM]	EC50 [3] [nM]	EC50 [4] [nM]	solubility at 18 h [5, 6] [µM]	solubility at 18 h [5, 7] [µM]	solubility at 18 h [5, 8] [µM]	solubility at 18 h ([5]; bistrispropane buffer, pH 7, pH 7.0, Table 8, read-out: Solubility pH 7.0) [µM]	solubility at 18 h ([5]; bistrispropane buffer, pH 7, pH 7.0, Table 9, read-out: Solubility pH 7.0) [µM]	solubility at 18 h [5, 9] [µM]	solubility at 18 h ([5]; bistrispropane buffer, pH 7.5, pH 7.5, Table 9, read-out: Solubility pH 7.5) [µM]	solubility at 18 h [5, 10] [µM]	solubility at 18 h [5, 11] [µM]	solubility at 18 h [5, 12] [µM]	solubility at 18 h [5, 13] [µM]	solubility at 18 h [5, 14] [µM]	solubility at 18 h [5, 15] [µM]	Structure (SMILES)
0.036	0.055	0.3	0.37	> 200	> 200	> 200	> 200	> 200	> 200	> 200	> 200	> 200	> 200	> 200	> 200	> 200	CC[C@H](C)[C@H](NC(=O)[C@@H]1CCCN1C(=O)CNC(=O)[C@H](Cc1ccccc1)NC(=O)[C@H](CC(N)=O)NC(=O)[C@H](CC(N)=O)NC(=O)[C@H](CO)NC(=O)[C@H](CO)NC(=O)[C@H](Cc1c[nH]cn1)NC(=O)[C@H](CCCNC(=N)N)NC(=O)[C@H](CC(C)C)NC(=O)[C@H](Cc1ccccc1)NC(=O)[C@H](CCC(=O)O)NC(=O)[C@H](C)NC(=O)[C@H](CC(C)C)NC(=O)[C@H](CCCNC(=N)N)NC(=O)[C@H](CCC(N)=O)NC(=O)[C@@H](NC(=O)[C@H](C)NC(=O)[C@@H]1CSSC[C@H](NC(=O)CNC(=O)CC[C@H](NC(=O)CCCCCCCCCCCCCCCCCCC(=O)O)C(=O)O)C(=O)N[C@@H](CC(N)=O)C(=O)N[C@@H]([C@@H](C)O)C(=O)N[C@@H](C)C(=O)N[C@@H]([C@@H](C)O)C(=O)N1)[C@@H](C)O)C(=O)N[C@@H](CC(C)C)C(=O)N1CCC[C@H]1C(=O)N1CCC[C@H]1C(=O)N[C@H](C(=O)N[C@@H](CC(N)=O)C(=O)N[C@H](C(=O)NCC(=O)N[C@@H](CO)C(=O)N[C@@H](CC(N)=O)C(=O)N[C@H](C(=O)N1CCC[C@H]1C(N)=O)[C@@H](C)O)C(C)C)[C@@H](C)O [Example 88, N-alpha-[(S)-4-Carboxy-4-(19-carboxynonadecanoylamino)butyryl]-[Gly1,Glu14,Arg17,Pro37]-pramlintide] ({C20 diacid-γGlu}-GCNTATCATQRLAEFLRHSSNNFGPILPPTNVGSNTP-NH2; disulfide 2-7 (inferred); C-terminus assumed)
0.299	0.352	0.643	4.97	> 200	> 200	> 200	–	–	> 200	–	> 200	> 200	> 200	> 200	> 200	> 200	CC[C@H](C)[C@H](NC(=O)[C@@H]1CCCN1C(=O)CNC(=O)[C@H](Cc1ccccc1)NC(=O)[C@H](CC(N)=O)NC(=O)[C@H](CC(N)=O)NC(=O)[C@H](CO)NC(=O)[C@H](CO)NC(=O)[C@H](Cc1c[nH]cn1)NC(=O)[C@H](Cc1c[nH]cn1)NC(=O)[C@H](CC(C)C)NC(=O)[C@H](Cc1ccccc1)NC(=O)[C@H](CCC(=O)O)NC(=O)[C@H](C)NC(=O)[C@H](CC(C)C)NC(=O)[C@H](CCCNC(=N)N)NC(=O)[C@H](CCC(N)=O)NC(=O)[C@@H](NC(=O)[C@H](C)NC(=O)[C@@H]1CSSC[C@H](NC(=O)[C@H](CCCCN)NC(=O)[C@H](CCC(=O)O)NC(=O)CC[C@H](NC(=O)CCCCCCCCCCCCCCCCCCC(=O)O)C(=O)O)C(=O)N[C@@H](CC(N)=O)C(=O)N[C@@H]([C@@H](C)O)C(=O)N[C@@H](C)C(=O)N[C@@H]([C@@H](C)O)C(=O)N1)[C@@H](C)O)C(=O)N[C@@H](CC(C)C)C(=O)N1CCC[C@H]1C(=O)N1CCC[C@H]1C(=O)N[C@H](C(=O)N[C@@H](CC(N)=O)C(=O)N[C@H](C(=O)NCC(=O)N[C@@H](CO)C(=O)N[C@@H](Cc1c[nH]cn1)C(=O)N[C@H](C(=O)N[C@@H](Cc1ccc(O)cc1)C(N)=O)[C@@H](C)O)C(C)C)[C@@H](C)O [Example 56, N-alpha-[(S)-4-Carboxy-4-(19-carboxynonadecanoylamino)butyryl]-Glu-[Glu14,His17,His35]-pramlintide] ({C20 diacid-γGlu}-EKCNTATCATQRLAEFLHHSSNNFGPILPPTNVGSHTY-NH2; disulfide 3-8 (inferred))
0.603	0.543	0.401	4.87	> 200	6 (≈ 28.7 µg/mL)	–	–	–	–	–	6 (≈ 28.7 µg/mL)	55 (≈ 263 µg/mL)	> 200	> 200	> 200	> 200	CC[C@H](C)[C@H](NC(=O)[C@@H]1CCCN1C(=O)CNC(=O)[C@H](Cc1ccccc1)NC(=O)[C@H](CC(N)=O)NC(=O)[C@H](CC(N)=O)NC(=O)[C@H](CO)NC(=O)[C@H](CO)NC(=O)[C@H](Cc1c[nH]cn1)NC(=O)[C@H](Cc1c[nH]cn1)NC(=O)[C@H](CC(C)C)NC(=O)[C@H](Cc1ccccc1)NC(=O)[C@H](CCC(=O)O)NC(=O)[C@H](C)NC(=O)[C@H](CC(C)C)NC(=O)[C@H](CCCNC(=N)N)NC(=O)[C@H](CCC(N)=O)NC(=O)[C@@H](NC(=O)[C@H](C)NC(=O)[C@@H]1CSSC[C@H](NC(=O)[C@H](Cc2c[nH]cn2)NC(=O)[C@H](Cc2c[nH]cn2)NC(=O)[C@H](Cc2c[nH]cn2)NC(=O)CC[C@H](NC(=O)CCCCCCCCCCCCCCCCCCC(=O)O)C(=O)O)C(=O)N[C@@H](Cc2c[nH]cn2)C(=O)N[C@@H]([C@@H](C)O)C(=O)N[C@@H](C)C(=O)N[C@@H]([C@@H](C)O)C(=O)N1)[C@@H](C)O)C(=O)N[C@@H](CC(C)C)C(=O)N1CCC[C@H]1C(=O)N1CCC[C@H]1C(=O)N[C@H](C(=O)N[C@@H](CC(N)=O)C(=O)N[C@H](C(=O)NCC(=O)N[C@@H](CO)C(=O)N[C@@H](Cc1c[nH]cn1)C(=O)N[C@H](C(=O)N[C@@H](Cc1ccc(O)cc1)C(N)=O)[C@@H](C)O)C(C)C)[C@@H](C)O [Example 32, N-alpha-[(S)-4-Carboxy-4-(19-carboxynonadecanoylamino)butyryl]-His-His-[His1,His3,Glu14,His17,His35]-pramlintide] ({C20 diacid-γGlu}-HHHCHTATCATQRLAEFLHHSSNNFGPILPPTNVGSHTY-NH2; disulfide 4-9 (inferred))
